{"source": "patent US20260168983A1", "about": "“YaxAB NANOPORE, NANOPORE SYSTEM COMPRISING SAME AND APPLICATIONS THEREOF” (KOREA RESEARCH INSTITUTE OF BIOSCIENCE AND BIOTECHNOLOGY, priority 2022, published 2026)", "key": {"BRD4-BD1 protein": {"target": "BRD4-BD1 protein (Homo sapiens, UniProt O60885)", "conditions": "1 M LiCl, pH 7.5"}, "Bcl-xL protein": {"target": "Bcl-xL protein (Homo sapiens, UniProt Q07817)", "sequence (Q07817 with tags, fused parts or gaps DEL45-84)": "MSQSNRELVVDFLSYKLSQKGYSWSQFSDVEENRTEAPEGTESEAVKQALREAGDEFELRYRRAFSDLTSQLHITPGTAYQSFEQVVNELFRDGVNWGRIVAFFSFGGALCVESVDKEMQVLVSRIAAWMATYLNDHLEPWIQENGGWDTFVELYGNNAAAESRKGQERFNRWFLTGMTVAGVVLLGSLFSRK"}}, "note": "Entries after “also recorded” stand apart in the source; their conditions may differ."}
{"molecule": "CCOc1cc(N2CCC(O)CC2)ccc1Nc1ncc2c(n1)N(C)c1ccccc1C(=O)N2C", "note": "[XMD8-92]", "values": [{"measurement": "nanopore current blockade signal of BRD4-BD1 with ligand", "setting": "BRD4-BD1 protein", "result": "characteristic nanopore current blockade patterns were observed"}]}
{"molecule": "CN(C)CC[C@H](CSc1ccccc1)Nc1ccc(S(=O)(=O)NC(=O)c2ccc(N3CCN(Cc4ccccc4-c4ccc(Cl)cc4)CC3)cc2)cc1[N+](=O)[O-]", "note": "[ABT-737]", "values": [{"measurement": "current noise (IN) signal of Bcl-xL on individual treatment", "setting": "Bcl-xL protein; FIG. 17A", "result": "specifically increased"}, {"measurement": "change in pattern of ionic current / current blockade of Bcl-xL on addition of ligand", "setting": "Bcl-xL protein; ligand added individually to Bcl-xL in cis compartment", "result": "change in pattern; also recorded: the pattern of ionic current changed significantly"}]}
